Measurements from patent publication US10138212B2, “Aminoquinazoline compounds as A2A antagonist” (Merck Sharp & Dohme Corp., priority 2015, dated 2018).

Key:
[1] = molecular target: human A1 receptor (Homo sapiens (Human), UniProt P30542); assay: A1 competition binding assay using Scintillation Proximity technology; selectivity = A1 binding Ki / A2a binding Ki; conditions: A1 binding Ki divided by A2a binding Ki
In short: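 SPA competition using 5 ug membranes from CHO-K1 cells expressing human A1, pretreated with adenosine deaminase. Radioligand was 0.7 nM [3H]DPCPX (final), with compound at 3000–0.15 nM in DPBS + 10 mM MgCl2. Incubation was 1 h at room temperature. Non-specific binding was defined with 1 uM DPCPX, and Ki was derived as for A2a.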

[2] = molecular target: human A2a receptor (Homo sapiens (Human), UniProt P29274); assay: A2a competition binding assay using Scintillation Proximity technology
In short: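 Membranes (0.25 or 1 μg) from HEK293 expressing the receptor were pretreated with adenosine deaminase and bound to WGA-coated yttrium silicate SPA beads. They were incubated 1 h at room temperature with compound at 3000–0.15 nM and 0.5 nM tritiated pyrazolotriazolopyrimidine ligand in Ca/Mg-free DPBS with 10 mM MgCl2. Ki was derived from […] by Cheng-Prusoff.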

[3] = 0.25 μg of membranes from HEK293 cells expressing the human A2a receptor
[4] = * assay run with 1 μg of membranes versus 0.25 μg, HEK293 cells expressing the human A2a receptor

Sequence of human A2a receptor (P29274 whole entry): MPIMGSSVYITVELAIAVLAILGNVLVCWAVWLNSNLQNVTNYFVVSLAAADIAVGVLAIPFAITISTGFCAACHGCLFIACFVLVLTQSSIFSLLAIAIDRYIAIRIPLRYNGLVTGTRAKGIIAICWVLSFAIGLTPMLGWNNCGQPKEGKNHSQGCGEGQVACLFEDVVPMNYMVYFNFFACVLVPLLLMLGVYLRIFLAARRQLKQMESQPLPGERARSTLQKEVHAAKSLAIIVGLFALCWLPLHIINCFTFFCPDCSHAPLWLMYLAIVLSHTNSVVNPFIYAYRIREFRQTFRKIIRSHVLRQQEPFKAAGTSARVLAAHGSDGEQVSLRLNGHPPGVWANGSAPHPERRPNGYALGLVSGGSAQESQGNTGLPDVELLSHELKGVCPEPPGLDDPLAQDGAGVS
Sequence of human A1 receptor (P30542 whole entry): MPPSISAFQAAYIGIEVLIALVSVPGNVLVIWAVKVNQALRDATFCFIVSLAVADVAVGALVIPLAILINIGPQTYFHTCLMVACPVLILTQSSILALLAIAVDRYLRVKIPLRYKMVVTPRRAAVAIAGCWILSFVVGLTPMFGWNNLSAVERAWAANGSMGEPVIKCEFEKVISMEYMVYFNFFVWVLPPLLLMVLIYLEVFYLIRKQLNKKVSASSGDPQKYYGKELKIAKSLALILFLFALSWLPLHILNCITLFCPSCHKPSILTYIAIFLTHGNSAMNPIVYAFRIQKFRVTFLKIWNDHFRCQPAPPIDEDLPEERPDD

| A2a selectivity (A2a A1 binding selectivity) [1] | Ki [2, 3] | Ki [2, 4] | SMILES |
| --- | --- | --- | --- |
| 100 | 0.9 nM | – | COc1cccc2c(C(=O)NCc3cccn(C)c3=O)nc(N)nc12 [Example 61, 2-amino-8-methoxy-N-[(1-methyl-2-oxo-3-pyridyl)methyl]quinazoline-4-carboxamide] |
| 297 | 4 nM | – | Nc1nc(C(=O)NCc2ncccc2-c2ncccn2)c2cccc(F)c2n1 [Example 67, 2-amino-8-fluoro-N-[(3-pyrimidin-2-yl-2-pyridyl)methyl]quinazoline-4-carboxamide] |
| 18 | – | 2.5 nM | COC(=O)c1ccccc1CNC(=O)c1nc(N)nc2c(F)cccc12 [Example 74, methyl 2-[[(2-amino-8-fluoro-quinazoline-4-carbonyl)amino]methyl]benzoate] |
| 273 | 4.6 nM | – | COc1cccc2c(C(=O)NCc3cccc(CO)n3)nc(N)nc12 [Example 14, 2-amino-N-[[6-(hydroxymethyl)-2-pyridyl]methyl]-8-methoxy-quinazoline-4-carboxamide] |
| 67 | 9.6 nM | – | Nc1nc(C(=O)NCc2cccc(CO)n2)c2cccc(F)c2n1 [Example 57, 2-amino-8-fluoro-N-[[6-(hydroxymethyl)-2-pyridyl]methyl]quinazoline-4-carboxamide] |
| 169 | 0.3 nM | – | COc1cccc2c(C(=O)NCc3cccc(C4CC4)n3)nc(N)nc12 [Example 7, 2-amino-N-[(6-cyclopropyl-2-pyridyl)methyl]-8-methoxy-quinazoline-4-carboxamide] |
| 193 | 0.6 nM | – | COc1cccc2c(C(=O)NCc3nc(C(C)(C)O)ccc3C)nc(N)nc12 [Example 2, 2-amino-N-[[6-(1-hydroxy-1-methyl-ethyl)-3-methyl-2-pyridyl]methyl]-8-methoxy-quinazoline-4-carboxamide] |
| 59 | 0.8 nM | – | Nc1nc(C(=O)NCc2cccc(-c3ccccn3)n2)c2cccc(F)c2n1 [Example 63, 2-amino-8-fluoro-N-[[6-(2-pyridyl)-2-pyridyl]methyl]quinazoline-4-carboxamide] |
| 3 | 14 nM | – | Nc1nc(C(=O)NCc2cc(C3CC3)on2)c2cccc(F)c2n1 [Example 83, 2-amino-N-[(5-cyclopropylisoxazol-3-yl)methyl]-8-fluoro-quinazoline-4-carboxamide] |
| 56 | 0.6 nM | – | CC(C)c1nc(CNC(=O)c2nc(N)nc3c(F)cccc23)cs1 [Example 82, 2-amino-8-fluoro-N-[(2-isopropylthiazol-4-yl)methyl]quinazoline-4-carboxamide] |
| 764 | 0.4 nM | – | COc1cccc2c(C(=O)NCc3cccc(C(C)(C)O)n3)nc(N)nc12 [Example 9, 2-amino-N-[[6-(1-hydroxy-1-methyl-ethyl)-2-pyridyl]methyl]-8-methoxy-quinazoline-4-carboxamide] |
| 32 | – | 3.7 nM | [2H]C([2H])(NC(=O)c1nc(N)nc2c(F)cccc12)c1cccc(Oc2ccc(OCCOC)cc2)n1 [Example 59, 2-amino-N-[dideuterio-[6-[4-(2-methoxyethoxy)phenoxy]-2-pyridyl]methyl]-8-fluoro-quinazoline-4-carboxamide] |

The next lines start with the compound.

| SMILES | A2a selectivity (A2a A1 binding selectivity) [1] | Ki [2, 3] | Ki [2, 4] |
| --- | --- | --- | --- |
| [2H]C([2H])(NC(=O)c1nc(N)nc2c(OC)cccc12)c1cccc(C([2H])([2H])c2cncc(OCCOC)c2)n1 [Example 107, 2-amino-N-[dideuterio-[6-[dideuterio-[5-(2-methoxyethoxy)-3-pyridyl]methyl]-2-pyridyl]methyl]-8-methoxy-quinazoline-4-carboxamide] | 95 | 2 nM | – |
| COc1cccc2c(C(=O)N[C@@H]3CCc4ccccc43)nc(N)nc12 [Example 33, 2-amino-N-[(1R)-indan-1-yl]-8-methoxy-quinazoline-4-carboxamide] | 60 | 5.3 nM | – |
| Nc1nc(C(=O)NCC23CC4CC(CC(C4)C2)C3)c2cccc(F)c2n1 [Example 85, N-(1-adamantylmethyl)-2-amino-8-fluoro-quinazoline-4-carboxamide] | 4 | 6.4 nM | – |
| Cc1cccn2cc(CNC(=O)c3nc(N)nc4c(F)cccc34)nc12 [Example 81, 2-amino-8-fluoro-N-[(8-methylimidazo[1,2-a]pyridin-2-yl)methyl]quinazoline-4-carboxamide] | 12 | 6.9 nM | – |
| Cc1ccc(CNC(=O)c2nc(N)nc3c(F)cccc23)nc1 [Example 72, 2-amino-8-fluoro-N-[(5-methyl-2-pyridyl)methyl]quinazoline-4-carboxamide] | 30 | 6.1 nM | – |
| COc1cccc2c(C(=O)N[C@H]3CCCc4cccnc43)nc(N)nc12 [Example 35, 2-amino-8-methoxy-N-[(8S)-5,6,7,8-tetrahydroquinolin-8-yl]quinazoline-4-carboxamide] | 48 | 180 nM | – |
| Nc1nc(C(=O)NCc2ccccc2-c2ncccn2)c2cccc(F)c2n1 [Example 64, 2-amino-8-fluoro-N-[(2-pyrimidin-2-ylphenyl)methyl]quinazoline-4-carboxamide] | 235 | 0.9 nM | – |
| [2H]C([2H])(NC(=O)c1nc(N)nc2c(OC)cccc12)c1cccc(C([2H])([2H])c2cncc(N3CCOCC3)c2)n1 [Example 110, 2-amino-N-[dideuterio-[6-[dideuterio-(5-morpholino-3-pyridyl)methyl]-2-pyridyl]methyl]-8-methoxy-quinazoline-4-carboxamide] | 64 | – | 2.5 nM |
| [2H]C([2H])(NC(=O)c1nc(N)nc2c(OC)cccc12)c1cccc(C([2H])([2H])c2cncc(-c3ncco3)c2)n1 [Example 108, 2-amino-N-[dideuterio-[6-[dideuterio-(5-oxazol-2-yl-3-pyridyl)methyl]-2-pyridyl]methyl]-8-methoxy-quinazoline-4-carboxamide] | 77 | – | 2.1 nM |
| Nc1nc(C(=O)NCc2cccc(Cc3ccccc3F)n2)c2cccc(F)c2n1 [Example 111, 2-amino-8-fluoro-N-[[6-[(2-fluorophenyl)methyl]-2-pyridyl]methyl]quinazoline-4-carboxamide] | 28 | – | 1.3 nM |
| Nc1nc(C(=O)NCc2nccc3ccccc23)c2cccc(F)c2n1 [Example 89, 2-amino-8-fluoro-N-(isoquinolin-1-ylmethyl)quinazoline-4-carboxamide] | 13 | – | 6.6 nM |
| CC(C)Oc1cccc(CNC(=O)c2nc(N)nc3c(F)cccc23)n1 [Example 78, 2-amino-8-fluoro-N-[(6-isoppropoxy-2-pyridyl)methyl]quinazoline-4-carboxamide] | 75 | 1 nM | – |
| COc1cccc2c(C(=O)NCc3cccc(C(C)(O)C(F)(F)F)n3)nc(N)nc12 (centres unmarked) [Example 3, 2-amino-8-methoxy-N-[[6-(2,2,2-trifluoro-1-hydroxy-1-methyl-ethyl)-2-pyridyl]methyl]quinazoline-4-carboxamide] | 600 | 0.5 nM | – |
